Laboratory results taken from paper PMC10367051, “Comprehensive Mechanistic View of the Hydrolysis of Oxadiazole-Based Inhibitors by Histone Deacetylase 6 (HDAC6)” (ACS Chemical Biology, 2023).

Target: T1, HDAC7 (Homo sapiens, UniProt Q8WUI4)
T1 construct: TwinStrep-FLAG-HALO (N, cleaved yes); made in house; host or cells: HEK293/T17
T1 sequence (Q8WUI4 1-952): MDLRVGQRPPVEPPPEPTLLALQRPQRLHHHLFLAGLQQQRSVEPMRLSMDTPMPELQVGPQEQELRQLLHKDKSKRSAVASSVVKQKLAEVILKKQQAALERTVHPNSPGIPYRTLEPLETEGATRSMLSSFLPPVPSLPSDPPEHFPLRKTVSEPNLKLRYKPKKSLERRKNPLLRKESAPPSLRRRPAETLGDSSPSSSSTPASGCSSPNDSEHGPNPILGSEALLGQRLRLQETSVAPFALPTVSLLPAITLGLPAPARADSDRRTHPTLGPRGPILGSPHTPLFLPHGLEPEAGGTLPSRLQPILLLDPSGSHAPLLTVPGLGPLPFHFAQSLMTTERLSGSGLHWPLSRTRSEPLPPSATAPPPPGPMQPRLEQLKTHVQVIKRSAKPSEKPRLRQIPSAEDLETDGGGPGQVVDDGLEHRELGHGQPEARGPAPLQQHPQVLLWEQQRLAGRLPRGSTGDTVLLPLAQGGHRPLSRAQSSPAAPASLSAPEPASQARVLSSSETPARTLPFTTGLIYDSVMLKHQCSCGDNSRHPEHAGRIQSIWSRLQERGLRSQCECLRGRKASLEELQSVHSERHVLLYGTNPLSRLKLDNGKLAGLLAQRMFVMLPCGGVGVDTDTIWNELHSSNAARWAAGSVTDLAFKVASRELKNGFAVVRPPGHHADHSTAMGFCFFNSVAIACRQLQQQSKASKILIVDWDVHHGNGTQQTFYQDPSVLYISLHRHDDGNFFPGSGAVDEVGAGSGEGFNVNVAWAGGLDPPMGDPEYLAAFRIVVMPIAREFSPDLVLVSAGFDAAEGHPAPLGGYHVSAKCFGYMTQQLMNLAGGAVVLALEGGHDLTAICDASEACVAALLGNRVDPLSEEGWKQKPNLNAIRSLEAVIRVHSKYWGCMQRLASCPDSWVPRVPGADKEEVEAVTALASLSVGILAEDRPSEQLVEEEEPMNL
Test: Fluorometric HDAC inhibition assay, HDAC7
Assay type: biochemical
Conditions: purified human protein; Boc-[Lys-TFA]-AMC substrate 10 μM; 15 min preincubation
Experimental: Large-scale expression of recombinant human HDACs was carried out as described previously.[32],[37] Briefly, HEK293/T17 cells were transiently transfected with expression pMM222 plasmids comprising N-terminally tagged (TwinStrep-FLAG-HALO tag; Figure S1) HDAC genes using linear poly(ethyleneimine) (PEI, Polysciences Inc.). Cells were harvested three days post-transfection, and cell pellets were resuspended in the lysis buffer (100 mM Tris-HCl, 10 mM NaCl, 5 mM KCl, 2 mM MgCl2, and 10% glycerol at pH 8.0). Cells were disrupted by sonication, cell lysates were cleared by centrifugation, and soluble fusion proteins were first purified by Streptactin affinity chromatography (IBA). For all HDACs but HDACs 1, 10, and 11, the N-terminal tag was cleaved off overnight by the addition of TEV protease (10:1 HDAC/TEV ratio). Size-exclusion chromatography on a Superose 6 column (GE Healthcare Bio-Sciences; running buffer 30 mM HEPES, 140 mM NaCl, 10 mM KCl, 3% glycerol, and 0.25 mM TCEP) was used as the final purification step for all HDAC constructs.
Optimized fluorometric assays were used to determine inhibition constants of studied compounds against individual HDAC isoforms as described previously.[32] Briefly, reactions were performed in the activity buffer comprising 50 mM HEPES, 140 mM NaCl, and 10 mM KCl at pH 7.4 supplemented with 1 mg mL^–1 bovine serum albumin (BSA), 1 mM tris(2-carboxyethyl)phosphine (TCEP), 10 μM substrates, and optimized concentrations of HDACs. The Ac-Gly-Ala-[Lys-Ac]-7-amino-methylcoumarylamide (AMC) substrate was used to profile HDACs 1, 2, 3, and 6; Boc-[Lys-TFA]-7-amino-methylcoumarylamide was used for HDACs 4, 5, 7, 8, and 9 (both substrates: Bachem); fluorescein-labeled N8-acetylspermidine was used for HDAC10;[32] and an internally quenched TNFα-derived peptide derivative was used for HDAC11.[39] Deacetylation reactions were monitored either by high-performance liquid chromatography (HPLC) (HDAC10) or by quantification of released AMC (λex/λem = 365/440 nm) using a CLARIOstar plate reader (BMG Labtech GmbH).

| IC50 [µM] | SMILES |
| --- | --- |
| > 20 | CS(=O)(=O)N(Cc1ccc(C(=O)NN)cn1)c1cccc(Cl)c1 [compound 4] |
| > 20 | CS(=O)(=O)N(Cc1ccc(-c2nnc(C(F)(F)F)o2)cn1)c1cccc(Cl)c1 [compound 7] |

| SMILES | IC50 [µM] |
| --- | --- |
| CS(=O)(=O)N(Cc1ccc(-c2nnc(C(F)F)o2)cn1)c1cccc(Cl)c1 [compound 8] | > 20 |
